According to patent US9791447B2, “Methods of identifying SENP1 inhibitors” (City of Hope, priority 2013, dated 2017):

Legend:
HeLa cells = experiment: Cellular SENP inhibition: SUMOylated proteins in HeLa cells by Western blot; settings: increasing concentrations, 48 hours
SENP2 [1] = biological target: T1, SENP2 (Homo sapiens (Human), UniProt Q9HC62); experiment: SUMO cleavage assay (gel-based), SENP2, SUMO-1 precursor YSE substrate; assay type: biochemical; settings: cleavage of SUMO-1 precursor (YSE), read-out: IC50 (μM)-SUMO1 SENP2
SENP2 [2] = biological target: T1, SENP2; experiment: SUMO cleavage assay (gel-based), SENP2, SUMO-2 precursor YSE substrate; assay type: biochemical; settings: cleavage of SUMO-2 precursor (YSE), read-out: IC50 (μM)-SUMO2 SENP2
SENP7 = SENP7 (Homo sapiens (Human), UniProt Q9BQF6); experiment: DUB-Glo bioluminescent assay, SENP7; assay type: biochemical; settings: DUB-Glo substrate
Procedure: (§1) In 96-well plates, SENPs (50-200 nM) were pre-treated with increasing concentrations of each compound, after which DUB-Glo (40 μM final concentration; Promega, Madison, Wis.) was added as substrate. Experiments were performed in triplicate. The amount of cleaved product is proportional to the relative light unit (RLU), which is bioluminescence produced by luciferase catalyzed reaction of luciferin that was produced by SENP cleavage of DUB-Glo.
(§2) To determine whether other SENPs can be inhibited by this family of inhibitors, a distant SENP member, SENP7, was tested in parallel with SENP1 and SENP2 using a pentapeptide substrate that contained the Gly-Gly motif and luciferin, known as DUB-Glo (Promega, Madison, Wis.). Cleavage of luciferin by a SENP can be detected by a coupled bioluminescent assay using luciferase. The bioluminescent reporter was chosen instead of a fluorescent reporter to avoid interference by the compounds during detection.
DUB-Glo Assay. The luciferase substrate assay (DUB-Glo, Promega, Madison, Wis.) was performed according to the manufacturer's instructions. Briefly, SENPs (final concentration 50-100 nM) in Tris buffer (50 mM Tris, pH 8.0, 100 mM NaCl, 10 mM DTT) were pre-incubated (10 min, room temperature) with increasing concentrations of inhibitor (0-60 μM final concentration) followed by addition of the luciferase substrate. Luciferase output was recorded 30 min after addition of the luciferase substrate. Values are the averages of experiments performed in triplicate.

SENP2 [3] = biological target: T1, SENP2; experiment: DUB-Glo bioluminescent assay, SENP2; assay type: biochemical; settings: DUB-Glo substrate
Procedure: as §1, §2
(§3) DUB-Glo Assay. The luciferase substrate assay (DUB-Glo, Promega, Madison, Wis.) was performed according to the manufacturer's instructions. […] Luciferase output was recorded 30 min after addition of the luciferase substrate. […]

SENP1 [4] = biological target: T2, SENP1 (Homo sapiens (Human), UniProt Q9P0U3); experiment: SUMO cleavage assay (gel-based), SENP1, SUMO-2 precursor YSE substrate; assay type: biochemical
SENP1 [5] = biological target: T2, SENP1; experiment: DUB-Glo bioluminescent assay, SENP1; assay type: biochemical; settings: DUB-Glo substrate
Procedure: as §1, §2, §3

SENP1 [6] = biological target: T2, SENP1; experiment: SUMO cleavage assay (gel-based), SENP1, SUMO-1 precursor YSE substrate; assay type: biochemical; settings: cleavage of SUMO-1 precursor (YSE), read-out: IC50 (μM)-SUMO1 SENP1

T1 sequence (Q9HC62 364-589): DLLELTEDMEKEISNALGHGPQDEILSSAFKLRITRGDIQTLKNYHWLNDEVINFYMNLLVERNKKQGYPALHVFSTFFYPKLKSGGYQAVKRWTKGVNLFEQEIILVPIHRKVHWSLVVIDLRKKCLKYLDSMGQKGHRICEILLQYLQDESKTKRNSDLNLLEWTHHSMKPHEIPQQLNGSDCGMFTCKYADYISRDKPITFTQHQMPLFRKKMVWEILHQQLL
Sequence of SENP7 (Q9BQF6 760-1050): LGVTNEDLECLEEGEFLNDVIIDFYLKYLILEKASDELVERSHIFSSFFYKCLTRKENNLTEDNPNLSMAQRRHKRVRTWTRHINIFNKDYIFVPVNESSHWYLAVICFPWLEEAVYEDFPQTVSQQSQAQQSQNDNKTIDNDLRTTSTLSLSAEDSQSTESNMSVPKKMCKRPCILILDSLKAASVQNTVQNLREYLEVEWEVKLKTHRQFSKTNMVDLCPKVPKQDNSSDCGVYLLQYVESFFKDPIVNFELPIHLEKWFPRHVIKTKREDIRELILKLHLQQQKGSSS
T2 sequence (Q9P0U3 419-644): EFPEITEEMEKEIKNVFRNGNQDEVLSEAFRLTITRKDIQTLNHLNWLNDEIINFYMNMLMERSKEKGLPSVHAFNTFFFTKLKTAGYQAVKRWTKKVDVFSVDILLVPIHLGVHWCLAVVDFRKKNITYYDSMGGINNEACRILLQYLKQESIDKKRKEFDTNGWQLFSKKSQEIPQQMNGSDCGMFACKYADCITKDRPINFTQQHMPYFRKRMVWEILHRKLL

`Nc1ccc2ccccc2c1/N=N/c1ccc(/C=C/c2ccc(/N=N/c3c(N)ccc4ccccc34)cc2S(=O)(=O)O)c(S(=O)(=O)O)c1` [SPI-01] was tested, and the “accumulation of SUMO-1 conjugates” value (HeLa cells) was “less significant effects on the accumulation of SUMO-1 conjugates” and the “accumulation of SUMO-2/3 conjugates” value (HeLa cells) was “SUMO-2/3 conjugates accumulated in cells”.

`Cc1cc(N)ccc1/N=N/c1cc(S(=O)(=O)O)c2cccc(S(=O)(=O)O)c2c1.[Na+].[Na+]` [SPI-07] gave an IC50 (SENP2 [1]) greater than 60 µM, an IC50 (SENP2 [2]) of 28.1 ± 9.2 µM and an IC50 (SENP7) of 1.9 ± 2.2 µM. For the same molecule, the IC50 (SENP2 [3]) was greater than 60 µM, the IC50 (SENP1 [4]; cleavage of SUMO-2 precursor (YSE), gel-based, read-out: IC50 (μM)-SUMO2 SENP1) was 17.5 ± 4.9 µM and the “potency for inhibiting SENP1 compared with SENP2” value (SENP1 [4]; cleavage of the SUMO-2 precursor) was “more potent for inhibiting SENP1 than SENP2”. For the same molecule, the IC50 (SENP1 [5]) was greater than 60 µM and the IC50 (SENP1 [6]) was greater than 60 µM.

For `Nc1c(/N=N/c2ccccc2)cc(S(=O)(=O)O)c2ccccc12` [SPI-08], the IC50 (SENP7) was 2.8 ± 1.6 µM.

`Nc1ccc2cc(S(=O)(=O)O)cc(S(=O)(=O)O)c2c1/N=N/c1ccc(S(=O)(=O)O)cc1` [SPI-09] was tested, and the IC50 (SENP7) was 1.9 ± 2.1 µM.
